# Reference: patent US20230203523A1, “HPPD INHIBITOR HERBICIDE TOLERANT PLANT” (priority 2021, published 2023)
# Experiments:
# Format in all cases: in vivo, Sorghum bicolor
# [1] = system: grain sorghum genotype BV10-11924 (mutant ADV-HT2); experiment: Field phytotoxicity trial, aerial biomass as % of untreated control, mutant ADV-HT2 sorghum; details: for Biomass % Control: field
# Method: (§1) To determine the spectrum of tolerance to different HPPD herbicide site of action (SOA) active ingredients (AI) in a sorghum HPPD tolerant inbred BV10-11924 (ADV-HT2) following methodology was used.
# (§2) Two grain sorghum genotypes were evaluated under field conditions with herbicide pre-emergency (PRE) and post-emergency (POE) treatments of 6 active ingredients of HPPD SOA herbicide families for sorghum crop phytotoxicity trials.
# (§3) The experiment design was a split-plot design with 2 replicates where: Herbicide treatment was defined as Main plot, and Genotype as split plot. Plot size were 10 square meters each, this is 4 row/plot, 5 meters length and 0.52 meters between rows.
# (§4) Both genotypes (Table 1) were sown in the Advanta R&D Station in Venado Tuerto, Argentina using an experimental planter. Wild type BV94-4045 (line used for mutagenesis in example 1) is a maintainer elite inbred line Advanta's proprietary.
# (§5) All herbicide treatments (Table 2) were applied same day of sowing date for herbicide PRE treatments, and 15 days after sowing for POE treatments using an experimental sprayer in optimal weather conditions. The herbicides rates were defined as: 1×, 2× and 4×. Along with the herbicides, there were applied specific surfactant when they were recommended by the supplier for each herbicide. In all cases, 1× rate was defined based on the recommended dose in herbicide label. […]
# (§6) For Aerial Biomass (Biomass) measurements, all plants from two central rows each plot were harvested by cutting them at ground level and weighted before and after drying at 60° C. for 48 h in order to determine the shoot dry mass reduction of each treatment. All data were standardized using the Aerial Biomass average as the % of Control plots. For the calculation as the percentage of its respective untreated control was used the following function:
# (§7) Biomass % Control=(Biomassgh/Biomassg Control)*100
# (§8) where “Biomass % Control” is the Aerial Biomass expressed as percent of each genotype in the Control plot without any herbicide application (Table 3); “Biomassgh” is the Aerial Biomass is the mean for each genotype*herbicide treatment combination and “Biomassg Control” is the Aerial Biomass mean for each genotype in the treatment CONTROL (untreated).
# [2] = system: grain sorghum genotype BV94-4045 (susceptible wild type); experiment: Field phytotoxicity trial, aerial biomass as % of untreated control, wild type sorghum; details: BV94-4045 wild type; for Biomass % Control: field; for phytotoxicity / biomass accumulation (in words): POE, 20 days after herbicide application, 4×
# Method: as §1, §2, §3, §4, §5, §6, §7, §8
# [3] = system: M3 sorghum plants of furrow VT09-8800 (BV94-4045EMS1-256-2, ADV-HT2); experiment: Herbicide spray selection of EMS-mutagenised M3 sorghum progeny; details: sprayed with 33.6 ml active ingredient/ha; six M3 plants of furrow VT09-8800
# Method: In order to obtain herbicide-tolerant plants, endogamic sorghum (Sorghum bicolor) line BV94-4045 (Advanta proprietary elite line) seeds were treated with an aqueous solution of ethyl methanesulfonate (EMS). Treated seeds were planted and self-pollinated for advancing generation. Eight hundred nighty five M1 plants were selected, and two seeds of each plant were planted in a nursery, thereby obtaining a total of 1790 M2 plants. Pollen from both plants of each pair were collected, and the bulk was used for pollinating both plants of the pair. A bulk of M3 seeds from each pair was obtained from the 895 pollinated M2 pairs of plants. A total of 895 furrows were planted with the M3 progeny. Fifty plants from each M3 furrow were sprayed with 33.6 ml active ingredient /ha of topramezone. […] The genealogy of the resistant plants from the furrows was identified and they were designated BV94-4045EMS1-256-2 (hereinafter referred to as ADV-HT2). Herbicide tolerant M7 mutant plants and seeds selected from the original ADV-HT2 mutant, designated as: Material ID=VT10-11924-1-BK and Inbred Code=BV10-11924, were obtained and deposited with the NCIMB collection with Access No. NCIMB 43919 under the terms of the Budapest Treaty,
# Thirty-two thousand pre-germinated sorghum seeds from endogamic line BV94-4045 were dipped into an aqueous solution of 0.05% v/v ethyl methanesulfonate (EMS) for 16 hours. […]
# [4] = POE application (15 days after sowing), 1X = label recommended rate
# [5] = POE, 20 days after herbicide application, rates 1×, 2×, and 4×
# [6] = PRE application (day of sowing), 1X = label recommended rate
# [7] = PRE, 1× rate, 20 days after the application
SMILES,"Biomass % Control [1, 4] [%]","Biomass % Control ([1]; POE application, 2X label rate) [%]","Biomass % Control ([1]; POE application, 4X label rate) [%]","phytotoxicity / biomass accumulation (in words) [1, 5]","Biomass % Control [2, 4] [%]","Biomass % Control ([2]; POE application, 2X label rate) [%]","Biomass % Control ([2]; POE application, 4X label rate) [%]",phytotoxicity / biomass accumulation (in words) ([2]; rates 2×),"Biomass % Control [1, 6] [%]","Biomass % Control ([1]; PRE application, 2X label rate) [%]","Biomass % Control ([1]; PRE application, 4X label rate) [%]","phytotoxicity / biomass accumulation (in words) [1, 7]","Biomass % Control [2, 6] [%]","Biomass % Control ([2]; PRE application, 2X label rate) [%]","Biomass % Control ([2]; PRE application, 4X label rate) [%]","phytotoxicity / biomass accumulation (in words) ([2]; rates 1×, 2×)",plant growth and symptoms after treatment with herbicide (in words) [3]
"CS(=O)(=O)c1ccc(C(=O)C2C(=O)CCCC2=O)c([N+](=O)[O-])c1 [MES, MESOTRIONE]",146,106,84,tolerant without phytotoxicity nor reduction in the biomass accumulation,108,32,13,significant reduction in the biomass accumulation,–,–,–,–,–,–,–,–,–
"CS(=O)(=O)c1cc(C(F)(F)F)ccc1C(=O)c1cnoc1C1CC1 [ISO, ISOXAFLUTOLE]",–,–,–,–,–,–,–,–,84,68,38,no significative reduction in biomass accumulation,63,28,10,–,–
"COCCOCc1nc(C(F)(F)F)ccc1C(=O)C1=C(O)C2CCC(C2)C1=O (stereo not drawn) [BYC, BICYCLOPIRONA]",–,–,–,–,–,–,–,–,127,46,15,no significative reduction in biomass accumulation,65,10,1,–,–
"CCn1ncc(C(=O)c2ccc(S(C)(=O)=O)c(OCCOC)c2C)c1OC(C)OC(=O)OC (stereo not drawn) [TOL, TOLPYRALATE]",117,92,127,tolerant without phytotoxicity nor reduction in the biomass accumulation,76,60,64,–,–,–,–,–,–,–,–,significant reduction in the biomass accumulation,–
"Cc1c(C(=O)c2cnn(C)c2O)ccc(S(C)(=O)=O)c1C1=NOCC1 [TOP, TOPRAMEZONE]",126,107,117,tolerant without phytotoxicity nor reduction in the biomass accumulation,77,51,39,–,–,–,–,–,–,–,–,significant reduction in the biomass accumulation,normal growth and absence of symptoms
